Experimental data as given in paper PMC3134342 (Journal of Experimental Botany, 2011).

What was measured:
At-A/N-InvG = target: T1, At-A/N-InvG (Arabidopsis thaliana, UniProt Q9LQF2); assay: inhibition of sucrose hydrolysis, fructose by HPAEC-PAD; type: biochemical
T1 sequence (Q9LQF2 1-551): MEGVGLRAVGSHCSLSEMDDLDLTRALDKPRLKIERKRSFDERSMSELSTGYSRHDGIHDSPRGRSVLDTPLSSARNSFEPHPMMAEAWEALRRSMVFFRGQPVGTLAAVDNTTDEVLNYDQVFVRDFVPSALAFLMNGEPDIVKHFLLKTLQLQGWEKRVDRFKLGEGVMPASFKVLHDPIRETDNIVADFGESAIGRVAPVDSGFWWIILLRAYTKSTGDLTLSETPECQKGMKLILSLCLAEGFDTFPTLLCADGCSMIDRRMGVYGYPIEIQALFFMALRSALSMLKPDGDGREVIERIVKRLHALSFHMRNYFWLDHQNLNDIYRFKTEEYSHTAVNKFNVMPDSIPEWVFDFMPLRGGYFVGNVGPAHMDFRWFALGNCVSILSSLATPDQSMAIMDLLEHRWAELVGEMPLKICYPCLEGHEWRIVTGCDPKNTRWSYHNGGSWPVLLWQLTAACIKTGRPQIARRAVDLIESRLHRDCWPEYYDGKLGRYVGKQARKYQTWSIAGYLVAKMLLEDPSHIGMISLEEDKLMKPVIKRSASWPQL

At-A/N-InvA = target: T2, At-A/N-InvA (Arabidopsis thaliana, UniProt Q9FXA8); assay: as above; type: biochemical; conditions: 100 mM sucrose, 50 mM potassium phosphate, pH 8.2, 30 °C
T2 sequence (Q9FXA8 79-616): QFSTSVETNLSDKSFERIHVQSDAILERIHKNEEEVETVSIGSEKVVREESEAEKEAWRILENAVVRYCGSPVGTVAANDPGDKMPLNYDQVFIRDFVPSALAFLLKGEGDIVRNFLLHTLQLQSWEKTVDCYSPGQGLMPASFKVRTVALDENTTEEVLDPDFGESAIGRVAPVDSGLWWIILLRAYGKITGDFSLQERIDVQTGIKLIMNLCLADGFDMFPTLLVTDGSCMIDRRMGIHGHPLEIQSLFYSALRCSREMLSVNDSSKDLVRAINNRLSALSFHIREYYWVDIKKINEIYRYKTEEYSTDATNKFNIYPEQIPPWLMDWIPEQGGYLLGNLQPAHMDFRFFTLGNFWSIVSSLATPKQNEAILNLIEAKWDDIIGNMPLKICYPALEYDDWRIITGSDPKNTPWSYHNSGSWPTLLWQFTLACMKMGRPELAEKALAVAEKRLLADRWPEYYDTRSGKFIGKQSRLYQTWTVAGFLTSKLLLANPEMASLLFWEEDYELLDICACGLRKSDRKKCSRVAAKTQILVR

IC50 (At-A/N-InvG): 25 to 30 mM
SMILES: NC(CO)(CO)CO [TRIS]
activity vs TRIS concentration (At-A/N-InvA): A typical inhibitory effect of TRIS on At-A/N-InvA activity was found
